Four molecules from USRE36832E, “N-heteroaryl-N'-phenylurea derivatives, their production and use” (Nihon Nohyaku Co., LTD, priority 1993, dated 2000) can be followed below.

Experiment [1] deals with T1, acyl-CoA:cholesterol O-acyltransferase (ACAT) (Oryctolagus cuniculus, UniProt G1SFD9).
T1 construct: The intestinal mucosa of a white rabbit was homogenized and microsomal fraction was obtained by stepwise centrifugation; from tissue; host or cells: intestinal mucosa of white rabbit, microsomal fraction
T1 sequence (G1SFD9 1-524): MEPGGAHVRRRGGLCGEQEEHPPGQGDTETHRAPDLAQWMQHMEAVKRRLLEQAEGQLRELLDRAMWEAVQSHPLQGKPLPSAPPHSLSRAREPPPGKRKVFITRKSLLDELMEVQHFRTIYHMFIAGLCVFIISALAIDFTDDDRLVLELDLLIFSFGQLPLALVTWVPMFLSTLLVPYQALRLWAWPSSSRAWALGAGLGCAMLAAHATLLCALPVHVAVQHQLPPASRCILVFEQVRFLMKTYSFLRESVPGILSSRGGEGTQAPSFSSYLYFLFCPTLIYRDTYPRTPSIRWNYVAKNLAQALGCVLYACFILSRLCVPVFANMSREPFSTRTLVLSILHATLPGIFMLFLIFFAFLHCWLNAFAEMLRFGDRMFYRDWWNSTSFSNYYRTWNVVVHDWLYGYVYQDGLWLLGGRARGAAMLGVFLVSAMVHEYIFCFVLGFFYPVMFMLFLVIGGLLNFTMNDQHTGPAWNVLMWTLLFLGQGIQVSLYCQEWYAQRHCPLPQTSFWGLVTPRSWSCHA
In words: Inhibitory activity on acyl-CoA:cholesterol O-acyltransferase (ACAT), intestinal mucosa microsomal fraction, [1-14C]oleyl-CoA incorporation into cholesterol esters. The class given is biochemical, white rabbit. The conditions noted are these: read-out: Inhibition rate %. The method, then: Inhibitory activity on acyl-CoA:cholesterol Oacyltransferase (ACAT)
The enzyme used in the test was prepared according to the method of Heider et al. [J. Lipid, Res. 24, 1127 (1983)]. The intestinal mucosa of a white rabbit was homogenized and microsomal fraction was obtained by stepwise centrifugation. The microsomal fraction was suspended in 0,154M phosphate buffer (pH 0 7.4) and stored at -80° C. until use.
ACAT activity was determined by a modification of the method of Helgerud et al. [J. Lipid Res. 22, 271 (1981)] by measuring radioactivity incorporated into cholesterol esters from [1-14C]oleyl-CoA, as an indication. As to the ACAT-inhibiting activity of each compound to be tested, the inhibition rate was calculated by the following equation.

The next experiment concerns serum cholesterol. Put plainly: Serum cholesterol lowering activity in hamsters fed on a high-cholesterol diet. The class given is in vivo, Male Syrian hamsters. The conditions noted are these: 30 mg per kg of body weight per day for 4 days, 24 hours after the last administration. On the procedure:
Serum cholesterol lowering activity in hamsters fed on a high-cholesterol diet
Male Syrian hamsters of 10-week-old were divided into three groups. The first group (normal group) was fed an ordinary diet for 4 days. The second group (control group) was fed a high cholesterol diet (containing 0.5% cholesterol and 8.0% coconut oil for 4 days. The third group (treated group) was fed a high cholesterol diet and was treated with a compound for 4 days. Simultaneously with the beginning of the above feeding, the compound suspended in a 0.5% carboxymethyl cellulose solution was administered to the treated group, in a dose of 30 mg (in terms of the compound) per kg of body weight per day for 4 days. A 0.5% carboxymethyl cellulose solution was also administered to the normal group and the control group in the same manner as above. After 24 hours of the last administration, blood was collected and the cholesterol concentration in serum was measured by an enzymatic method. The reduction rate of the total serum cholesterol concentration was calculated from values obtained for the three groups by the following equation. [formula] wherein A: the serum cholesterol concentration of the control group.
B: the serum cholesterol concentration of the compound treated group.
C: the serum cholesterol concentration of the normal group.

The subject of experiment [2] is cholesterol esterification in macrophages. Put plainly: Inhibitory effect on cholesterol esterification in macrophages (J774 A.1 cells, AcLDL-loaded, [14C]oleate incorporation). The class given is cell-based. Particulars: Mus musculus, Macrophage, read-out: Inhibition rate (%). The method, then: Inhibitory effect on cholesterol esterification in macrophages
The test was carried out by a modification of the method of Goldstein et al. [Pro. Nat. Acad. Sci. USA 71, 4288 (1974)]. J774 A.1 cells, the mouse macropharge-like cell line, were suspended in Dulbecco's modified Eagle's medium (DMEM) containing 10% fetal calf serum (FCS), in a proportion of 3×10^5 cells per 2 ml and were seeded into in 6-well plates. The cells were cultured under a humidified atmosphere of 95% air/5% CO2 at 37° C. for 24 hours. The medium was replaced by 1 ml of DMEM containing 10% of FCS and 50 μg/ml of acetylated human low density lipoprotein (AcLDL), followed by culturing for 16 hours. Five microliters each compound was dissolved in dimethyl sulfoxide and solution was added to the medium, followed by culturing for another 2 hours. Then, [14C]oleate (2×10^6 dpm/well) bovine serum albumin complex was added in the medium. After 2 hours of culture cells were collected and the cholesterol-esterifying activity was determined by measuring radioactivity incorporated into cholesterol esters in the cells. The recovery of the cholesterol esters was determined by the addition of [3H]cholesteryl oleate, and the esterifying activity was corrected using the recovery. As to the inhibitory activity on cholesterol esterification of the compound to be tested, the inhibition rate was calculated by the following equation. [formula] wherein A: the cholesterol-esterifying activity of AcLDL-loaded cells to which the compound to be tested was-added.
B: the cholesterol-esterifying activity of AcLDL-loaded cells to which dimethyl sulfoxide was added.

Molecules are shown by their SMILES.

By inhibition is commonly meant the relative decrease from the control value, in per cent. `CCc1cccc(CC)c1NC(=O)Nc1oc2ccc(Cl)cc2c1-c1ccccc1Cl` [Compound 12, N-[5-Chloro-3-(2-chlorophenyl)benzofuran-2-yl]-N'-(2,6-diethylphenyl)urea]: in experiment [1], the inhibition at 0.01 µM worked out at 82.9% and the inhibition at 1 µM was 99.4%. Besides, the “Reduction rate (%) of the total serum cholesterol concentration” value (shortened to “Reduction rate (%)”) with serum cholesterol is reported as 55.0%. Moreover, in experiment [2], the inhibition at 0.1 µM is 93% and the inhibition at 1 µM came to 99.5%.
`CCc1cccc(CC)c1NC(=O)Nc1oc2cc(C)c(C)cc2c1-c1ccccc1Cl` [Compound 37, N-[3-(2-Chlorophenyl)-5,6-dimethylbenzofuran-2-yl]-N'-(2,6-diethylphenyl)urea]: in experiment [1], the inhibition at 0.01 µM is 74.7% and the inhibition at 1 µM was found to be 99.5%. Also, the “Reduction rate (%)” value in the experiment on serum cholesterol was determined as 59.3%.
As to `CCc1cccc(CC)c1NC(=O)Nc1sc2cc(C)c(C)cc2c1-c1ccccc1Cl` [Compound 80, N-[3-(2-Chlorophenyl)-5,6-dimethyl-1-benzothiophen-2-yl]-N'-(2,6-diethylphenyl)urea], the inhibition at 0.01 µM in experiment [1] was 69.9%. Besides, the “Reduction rate (%)” value in the experiment on serum cholesterol is reported as 85.9%. In experiment [2], the inhibition at 0.1 µM worked out at 85.3% and the inhibition at 1 µM is 96.9%.
In the case of `CCc1cccc(CC)c1NC(=O)Nc1sc2cc3c(cc2c1-c1ccccc1C)CCC3` [Compound 109, N-(2,6-Diethylphenyl)-N'-[3-(2-methylphenyl)-6,7-dihydro-5H-cyclopenta[f][1]benzothiophen-2-yl]urea], the inhibition at 0.01 µM in experiment [1] came out at 80.1%. Further, the “Reduction rate (%)” value in the experiment on serum cholesterol is 71.5%.
